Experimental data published in PMC8296573, “Synthesis and Biological Evaluation of Fingolimod Derivatives as Antibacterial Agents” (ACS Omega, 2021).
≈ marks a conversion by molar mass, not a printed value. Like-named read-outs stand apart in the source and are kept apart here. Marks after values point to notes of the source that are not given here.

Assays:
P. aeruginosa ATCC 9027 = test: Antibacterial activity, pre-exposure; format: cell-based, Pseudomonas aeruginosa; conditions: for inhibition at 50 µM / inhibition at 100 µM / inhibition at 150 µM / inhibition at 200 µM: ATCC9027, P. aeruginosa ATCC 9027, pre-exposure, ± SD
Procedure, shortened: (§1)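 Read-outs were turbidity and resazurin reduction for planktonic cells, and resazurin followed by crystal violet biomass (A595) for biofilms. Compounds were present from inoculation onward, with 18 h aerobic growth at 37 °C under shaking.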

S. aureus ATCC 25923 [1] = test: Antibacterial activity, pre-exposure (planktonic cells and biofilm formation); format: cell-based, Staphylococcus aureus; conditions: for inhibition at 5 µM / inhibition at 10 µM / inhibition at 15 µM / inhibition at 25 µM / Average inhibition %, biofilms viability / Average inhibition %, planktonic cells viability: pre-exposure, ± SD
Procedure, shortened: as §1

S. aureus ATCC 25923 [2] = test: Antibacterial activity, post-exposure on preformed 18-h-old biofilms; format: cell-based, Staphylococcus aureus; conditions: ± SD; for inhibition at 25 µM / inhibition at 50 µM / inhibition at 100 µM / inhibition at 200 µM: Staphylococcus aureus; for inhibition at 25 µM: ATCC25923, 25 µM; for inhibition at 50 µM: ATCC25923, 50 µM; for inhibition at 100 µM: ATCC25923, 100 µM; for inhibition at 200 µM: ATCC25923, 200 µM
Procedure, shortened: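 Biofilms grown 18 h without compound, medium then replaced and compound added for a further 24 h. Planktonic OD and resazurin (20 μM final) fluorescence (ex 560/em 590 nm) read; washed biofilms stained with 20 μM resazurin 30 min at 37 °C, then ethanol-fixed and crystal violet-stained, absorbance 595 nm.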

[3] = Pseudomonas aeruginosa, read-out: Average inhibition %, biofilms biomass
[4] = Pseudomonas aeruginosa, read-out: Average inhibition %, planktonic cells turbidity
[5] = read-out: Average inhibition %, biofilms biomass
[6] = read-out: Average inhibition %, planktonic cells turbidity

MIC (P. aeruginosa ATCC 9027; Pseudomonas aeruginosa, ATCC9027, pre-exposure, Inactive = no activity up to 200 μM, > = some inhibition but no MIC reached, read-out: MIC P. aeruginosa ATCC 9027): > 200 µM
MIC P. aeruginosa ATCC 9027 (P. aeruginosa ATCC 9027; pre-exposure, Inactive = no activity up to 200 μM, > = some inhibition but no MIC reached, listed as Fgd): > 200 ^b μM
MIC (S. aureus ATCC 25923 [1]; Staphylococcus aureus, ATCC25923, lowest concentration with no visible growth (>90% inhibition of turbidity and viability of planktonic cells), 18 h, read-out: MIC S. aureus ATCC 25923): 15 µM (≈ 4.61 µg/mL)
Compound: CCCCCCCCc1ccc(CCC(N)(CO)CO)cc1 [fingolimod, Fingolimod]
inhibition at 50 µM (P. aeruginosa ATCC 9027; [3]): 30.1 ± 16.2%
inhibition at 50 µM (P. aeruginosa ATCC 9027; [4]): 51.5 ± 24%
inhibition at 100 µM (P. aeruginosa ATCC 9027; [3]): 36.9 ± 13.7%
inhibition at 100 µM (P. aeruginosa ATCC 9027; [4]): 85.9 ± 3.6%
inhibition at 150 µM (P. aeruginosa ATCC 9027; [3]): 40.7 ± 17.8%
inhibition at 150 µM (P. aeruginosa ATCC 9027; [4]): 86.8 ± 3.4%
inhibition at 200 µM (P. aeruginosa ATCC 9027; [3]): 45.4 ± 18.5%
inhibition at 200 µM (P. aeruginosa ATCC 9027; [4]): 85.1 ± 3.8%
inhibition at 5 µM (S. aureus ATCC 25923 [1]; Staphylococcus aureus, ATCC25923, 5 µM, read-out: Average inhibition %, biofilms biomass): 37 ± 11.2%
inhibition at 5 µM (S. aureus ATCC 25923 [1]; Staphylococcus aureus, ATCC25923, 5 µM, read-out: Average inhibition %, planktonic cells turbidity): 25 ± 10.6%
inhibition at 10 µM (S. aureus ATCC 25923 [1]; Staphylococcus aureus, ATCC25923, 10 µM, read-out: Average inhibition %, biofilms biomass): 42.2 ± 5%
inhibition at 10 µM (S. aureus ATCC 25923 [1]; Staphylococcus aureus, ATCC25923, 10 µM, read-out: Average inhibition %, planktonic cells turbidity): 36.7 ± 10%
inhibition at 15 µM (S. aureus ATCC 25923 [1]; Staphylococcus aureus, ATCC25923, 15 µM, read-out: Average inhibition %, biofilms biomass): 91.7 ± 6%
inhibition at 15 µM (S. aureus ATCC 25923 [1]; Staphylococcus aureus, ATCC25923, 15 µM, read-out: Average inhibition %, planktonic cells turbidity): 99.8 ± 0.1%
inhibition at 25 µM (S. aureus ATCC 25923 [1]; Staphylococcus aureus, ATCC25923, 25 µM, read-out: Average inhibition %, biofilms biomass): 90.8 ± 6.9%
inhibition at 25 µM (S. aureus ATCC 25923 [1]; Staphylococcus aureus, ATCC25923, 25 µM, read-out: Average inhibition %, planktonic cells turbidity): 99.8 ± 0.1%
Average inhibition %, biofilms viability (S. aureus ATCC 25923 [1]; 5 µM): 38.7 ± 5.5%
Average inhibition %, planktonic cells viability (S. aureus ATCC 25923 [1]; 5 µM): 16.1 ± 26.5%
Average inhibition %, biofilms viability (S. aureus ATCC 25923 [1]; 10 µM): 41.5 ± 7.1%
Average inhibition %, planktonic cells viability (S. aureus ATCC 25923 [1]; 10 µM): 17.2 ± 23.4%
Average inhibition %, biofilms viability (S. aureus ATCC 25923 [1]; 15 µM): 99.7 ± 0.2%
Average inhibition %, planktonic cells viability (S. aureus ATCC 25923 [1]; 15 µM): 99.9 ± 0%
Average inhibition %, biofilms viability (S. aureus ATCC 25923 [1]; 25 µM): 99.5 ± 0.1%
Average inhibition %, planktonic cells viability (S. aureus ATCC 25923 [1]; 25 µM): 99.9 ± 0.1%
Average inhibition %, biofilms viability (S. aureus ATCC 25923 [2]; 25 µM): 19.2 ± 14.5%
Average inhibition %, planktonic cells viability (S. aureus ATCC 25923 [2]; 25 µM): 7.8 ± 3.6%
Average inhibition %, biofilms viability (S. aureus ATCC 25923 [2]; 50 µM): 35 ± 7%
Average inhibition %, planktonic cells viability (S. aureus ATCC 25923 [2]; 50 µM): 2.9 ± 2.6%
Average inhibition %, biofilms viability (S. aureus ATCC 25923 [2]; 100 µM): 52.2 ± 12.4%
Average inhibition %, planktonic cells viability (S. aureus ATCC 25923 [2]; 100 µM): 48.9 ± 16.2%
Average inhibition %, biofilms viability (S. aureus ATCC 25923 [2]; 200 µM): 77.3 ± 19%
Average inhibition %, planktonic cells viability (S. aureus ATCC 25923 [2]; 200 µM): 90.5 ± 9.9%
inhibition at 25 µM (S. aureus ATCC 25923 [2]; [5]): 39.7 ± 16.2%
inhibition at 25 µM (S. aureus ATCC 25923 [2]; [6]): 1.1 ± 2%
inhibition at 50 µM (S. aureus ATCC 25923 [2]; [5]): 60.7 ± 12.4%
inhibition at 50 µM (S. aureus ATCC 25923 [2]; [6]): 13.8 ± 11.2%
inhibition at 100 µM (S. aureus ATCC 25923 [2]; [5]): 67.3 ± 9.5%
inhibition at 100 µM (S. aureus ATCC 25923 [2]; [6]): 42.4 ± 7%
inhibition at 200 µM (S. aureus ATCC 25923 [2]; [5]): 71 ± 11%
inhibition at 200 µM (S. aureus ATCC 25923 [2]; [6]): 75.5 ± 11%
